Results on one compound are retold here after paper PMC10174618, “Monoterpenoid aryl hydrocarbon receptor allosteric antagonists protect against ultraviolet skin damage in female mice” (Nature Communications, 2023).

Experiment in all cases: biochemical
Common to all, as to set-up: KINOMEscan scanMAX active site-directed competition binding assay, percent of control, 468 kinases
Holding throughout (settings): competition binding, percent of control

Test [1] concerns the target T1, ABL1(F317L)-nonphosphorylated (Homo sapiens, UniProt P00519, F317L).
T1 construct: nonphosphorylated
The procedure, abridged:
(§1)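 KINOMEscan active site-directed competition binding assay against 468 human kinases with 100 μM S-carvone. Binding expressed as % of control, with 35% of control as the inhibition threshold.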

The target of test [2] is T2, ABL1(M351T)-phosphorylated (Homo sapiens, UniProt P00519, M351T).
T2 construct: phosphorylated
In a few lines:
as §1

A further test concerns the target T3, ABL1-phosphorylated (Homo sapiens, UniProt P00519).
T3 construct: phosphorylated
The procedure, abridged:
as §1

The target in the next test is ACVR2A (Homo sapiens, UniProt P27037). In a few lines: as §1
The target in a further test is CAMK1 (Homo sapiens, UniProt Q14012). The procedure, abridged:
as §1

The next test concerns the target DYRK2 (Homo sapiens, UniProt Q92630). The procedure, abridged: as §1
The next test deals with T4, ERK8 (Homo sapiens, UniProt Q8TD08).
T4 construct: gene MAPK15
The procedure, abridged: as §1

The next test deals with FLT3(R834Q) (Homo sapiens, UniProt P36888, R834Q). The procedure, abridged:
as §1

The next test has as its target IGF1R (Homo sapiens, UniProt P08069). The procedure, abridged: as §1
For a further test, the target named is KIT(D816V) (Homo sapiens, UniProt P10721, D816V). In a few lines:
as §1

Another test concerns the target T5, LZK (Homo sapiens, UniProt O43283).
T5 construct: gene MAP3K13
The procedure, abridged:
as §1

The next test deals with T6, MLK3 (Homo sapiens, UniProt Q16584).
T6 construct: gene MAP3K11
In a few lines:
as §1

The target in the next test is T7, MST2 (Homo sapiens, UniProt Q13188).
T7 construct: gene STK3
The procedure, abridged:
as §1

For the next test, the target named is T8, NDR2 (Homo sapiens, UniProt Q9Y2H1).
T8 construct: gene STK38L
The procedure, abridged:
as §1

A further test addresses T9, PIP5K2B (Homo sapiens, UniProt P78356).
T9 construct: gene PIP4K2B
In a few lines:
as §1

The next test addresses T10, PKAC-alpha (Homo sapiens, UniProt P17612).
T10 construct: gene PRKACA
In a few lines: as §1

Another test deals with PRKCD (Homo sapiens, UniProt Q05655). In a few lines:
as §1

The target of another test is T11, RIPK5 (Homo sapiens, UniProt Q6XUX3).
T11 construct: gene DSTYK
The procedure, abridged:
as §1

The target in a further test is SYK (Homo sapiens, UniProt P43405). The procedure, abridged:
as §1

A further test concerns the target T12, TRKA (Homo sapiens, UniProt P04629).
T12 construct: gene NTRK1
In a few lines:
as §1

The target of a further test is ULK2 (Homo sapiens, UniProt Q8IYT8). In a few lines:
as §1

Chain of DYRK2 (Q92630 whole entry): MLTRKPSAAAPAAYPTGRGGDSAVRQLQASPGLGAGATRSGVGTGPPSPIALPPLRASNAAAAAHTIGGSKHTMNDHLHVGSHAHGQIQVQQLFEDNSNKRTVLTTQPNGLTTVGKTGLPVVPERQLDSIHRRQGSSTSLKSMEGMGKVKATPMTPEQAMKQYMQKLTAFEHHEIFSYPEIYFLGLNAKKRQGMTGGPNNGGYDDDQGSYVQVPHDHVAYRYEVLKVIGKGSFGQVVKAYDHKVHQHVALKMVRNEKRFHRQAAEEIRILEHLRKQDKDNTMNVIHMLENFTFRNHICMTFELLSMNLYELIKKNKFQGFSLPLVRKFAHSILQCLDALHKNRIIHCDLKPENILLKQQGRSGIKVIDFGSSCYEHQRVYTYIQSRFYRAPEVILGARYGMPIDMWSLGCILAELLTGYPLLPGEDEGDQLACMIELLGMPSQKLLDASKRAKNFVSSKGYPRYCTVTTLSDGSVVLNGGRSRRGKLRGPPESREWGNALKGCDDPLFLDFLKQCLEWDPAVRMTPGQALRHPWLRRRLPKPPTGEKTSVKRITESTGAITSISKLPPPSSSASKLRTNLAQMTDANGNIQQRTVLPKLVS
T9 sequence (P78356 whole entry): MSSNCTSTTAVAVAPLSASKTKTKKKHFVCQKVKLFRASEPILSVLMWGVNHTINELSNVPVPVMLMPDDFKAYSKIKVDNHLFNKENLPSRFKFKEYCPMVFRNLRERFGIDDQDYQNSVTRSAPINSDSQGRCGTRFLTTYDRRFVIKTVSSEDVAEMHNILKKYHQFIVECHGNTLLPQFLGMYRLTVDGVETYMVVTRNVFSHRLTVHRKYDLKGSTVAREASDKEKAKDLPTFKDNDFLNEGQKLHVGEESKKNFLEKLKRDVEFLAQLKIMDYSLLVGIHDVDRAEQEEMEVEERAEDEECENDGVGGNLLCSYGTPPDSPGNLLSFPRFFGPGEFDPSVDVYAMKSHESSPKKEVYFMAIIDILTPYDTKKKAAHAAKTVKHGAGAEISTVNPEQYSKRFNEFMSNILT
Chain of CAMK1 (Q14012 whole entry): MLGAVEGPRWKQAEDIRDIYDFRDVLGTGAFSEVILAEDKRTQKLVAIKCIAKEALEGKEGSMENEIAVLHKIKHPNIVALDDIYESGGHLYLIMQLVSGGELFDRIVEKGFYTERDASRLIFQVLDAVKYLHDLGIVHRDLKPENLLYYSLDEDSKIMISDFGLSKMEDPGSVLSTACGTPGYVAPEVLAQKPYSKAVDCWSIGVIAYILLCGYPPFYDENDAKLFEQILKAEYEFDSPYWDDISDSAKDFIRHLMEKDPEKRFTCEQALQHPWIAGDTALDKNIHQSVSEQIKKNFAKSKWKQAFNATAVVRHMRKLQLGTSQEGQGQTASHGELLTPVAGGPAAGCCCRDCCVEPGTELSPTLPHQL
T8 sequence (Q9Y2H1 whole entry): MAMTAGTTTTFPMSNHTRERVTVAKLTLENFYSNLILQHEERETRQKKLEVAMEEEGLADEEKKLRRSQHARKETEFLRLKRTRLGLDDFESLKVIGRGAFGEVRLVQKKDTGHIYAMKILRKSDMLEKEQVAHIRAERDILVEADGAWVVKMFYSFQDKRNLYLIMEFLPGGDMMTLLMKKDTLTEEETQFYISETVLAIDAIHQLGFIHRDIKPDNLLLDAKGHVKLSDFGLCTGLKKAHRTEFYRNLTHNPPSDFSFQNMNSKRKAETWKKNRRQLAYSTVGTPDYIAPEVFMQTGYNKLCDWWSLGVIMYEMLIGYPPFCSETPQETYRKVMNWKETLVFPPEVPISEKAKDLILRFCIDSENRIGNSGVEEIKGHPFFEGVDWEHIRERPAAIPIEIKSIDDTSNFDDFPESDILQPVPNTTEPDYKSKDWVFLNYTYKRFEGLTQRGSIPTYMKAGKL
T12 sequence (P04629 whole entry): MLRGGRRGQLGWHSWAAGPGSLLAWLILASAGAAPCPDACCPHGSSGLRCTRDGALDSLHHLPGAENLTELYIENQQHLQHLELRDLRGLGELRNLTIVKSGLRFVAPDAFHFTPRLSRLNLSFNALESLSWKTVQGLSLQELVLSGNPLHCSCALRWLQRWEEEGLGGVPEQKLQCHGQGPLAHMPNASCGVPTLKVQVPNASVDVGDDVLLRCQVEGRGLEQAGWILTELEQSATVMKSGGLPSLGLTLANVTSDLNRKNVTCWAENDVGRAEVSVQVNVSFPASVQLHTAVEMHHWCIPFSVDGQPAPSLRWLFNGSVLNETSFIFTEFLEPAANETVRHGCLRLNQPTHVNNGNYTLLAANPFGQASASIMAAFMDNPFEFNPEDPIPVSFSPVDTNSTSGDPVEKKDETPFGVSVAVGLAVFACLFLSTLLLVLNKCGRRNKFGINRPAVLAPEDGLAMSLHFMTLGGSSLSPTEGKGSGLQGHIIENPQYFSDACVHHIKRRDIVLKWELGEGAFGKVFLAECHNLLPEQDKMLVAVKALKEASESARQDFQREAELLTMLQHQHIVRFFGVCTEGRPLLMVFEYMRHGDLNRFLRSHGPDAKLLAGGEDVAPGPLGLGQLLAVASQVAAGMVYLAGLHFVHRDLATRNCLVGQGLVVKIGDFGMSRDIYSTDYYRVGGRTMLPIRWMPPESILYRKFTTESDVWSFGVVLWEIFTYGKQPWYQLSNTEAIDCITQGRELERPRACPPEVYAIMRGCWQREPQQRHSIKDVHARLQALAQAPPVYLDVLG
T5 sequence (O43283 whole entry): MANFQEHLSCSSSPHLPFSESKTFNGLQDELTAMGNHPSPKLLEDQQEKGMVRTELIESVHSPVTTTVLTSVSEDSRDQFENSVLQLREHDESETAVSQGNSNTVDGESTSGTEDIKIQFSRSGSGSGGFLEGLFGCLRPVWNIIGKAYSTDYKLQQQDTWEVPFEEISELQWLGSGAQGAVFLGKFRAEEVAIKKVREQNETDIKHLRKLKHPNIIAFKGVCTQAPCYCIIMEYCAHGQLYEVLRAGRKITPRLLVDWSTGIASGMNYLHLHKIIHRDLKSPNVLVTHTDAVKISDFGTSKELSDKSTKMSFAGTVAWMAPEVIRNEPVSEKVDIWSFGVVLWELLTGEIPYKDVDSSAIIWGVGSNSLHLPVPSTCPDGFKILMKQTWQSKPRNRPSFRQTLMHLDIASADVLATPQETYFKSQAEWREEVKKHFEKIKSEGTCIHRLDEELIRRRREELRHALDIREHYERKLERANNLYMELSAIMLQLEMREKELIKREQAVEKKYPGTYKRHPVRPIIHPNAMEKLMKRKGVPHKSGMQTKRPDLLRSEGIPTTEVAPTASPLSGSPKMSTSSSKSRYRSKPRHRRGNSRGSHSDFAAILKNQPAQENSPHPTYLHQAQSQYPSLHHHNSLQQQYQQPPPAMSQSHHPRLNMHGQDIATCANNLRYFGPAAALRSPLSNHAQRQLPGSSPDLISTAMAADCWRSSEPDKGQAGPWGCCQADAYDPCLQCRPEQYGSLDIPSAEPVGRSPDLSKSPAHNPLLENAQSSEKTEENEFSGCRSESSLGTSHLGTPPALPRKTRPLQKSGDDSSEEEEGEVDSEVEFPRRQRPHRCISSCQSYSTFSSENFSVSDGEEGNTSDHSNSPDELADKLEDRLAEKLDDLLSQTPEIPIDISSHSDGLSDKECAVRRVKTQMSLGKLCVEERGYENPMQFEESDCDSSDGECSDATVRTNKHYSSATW
T11 sequence (Q6XUX3 whole entry): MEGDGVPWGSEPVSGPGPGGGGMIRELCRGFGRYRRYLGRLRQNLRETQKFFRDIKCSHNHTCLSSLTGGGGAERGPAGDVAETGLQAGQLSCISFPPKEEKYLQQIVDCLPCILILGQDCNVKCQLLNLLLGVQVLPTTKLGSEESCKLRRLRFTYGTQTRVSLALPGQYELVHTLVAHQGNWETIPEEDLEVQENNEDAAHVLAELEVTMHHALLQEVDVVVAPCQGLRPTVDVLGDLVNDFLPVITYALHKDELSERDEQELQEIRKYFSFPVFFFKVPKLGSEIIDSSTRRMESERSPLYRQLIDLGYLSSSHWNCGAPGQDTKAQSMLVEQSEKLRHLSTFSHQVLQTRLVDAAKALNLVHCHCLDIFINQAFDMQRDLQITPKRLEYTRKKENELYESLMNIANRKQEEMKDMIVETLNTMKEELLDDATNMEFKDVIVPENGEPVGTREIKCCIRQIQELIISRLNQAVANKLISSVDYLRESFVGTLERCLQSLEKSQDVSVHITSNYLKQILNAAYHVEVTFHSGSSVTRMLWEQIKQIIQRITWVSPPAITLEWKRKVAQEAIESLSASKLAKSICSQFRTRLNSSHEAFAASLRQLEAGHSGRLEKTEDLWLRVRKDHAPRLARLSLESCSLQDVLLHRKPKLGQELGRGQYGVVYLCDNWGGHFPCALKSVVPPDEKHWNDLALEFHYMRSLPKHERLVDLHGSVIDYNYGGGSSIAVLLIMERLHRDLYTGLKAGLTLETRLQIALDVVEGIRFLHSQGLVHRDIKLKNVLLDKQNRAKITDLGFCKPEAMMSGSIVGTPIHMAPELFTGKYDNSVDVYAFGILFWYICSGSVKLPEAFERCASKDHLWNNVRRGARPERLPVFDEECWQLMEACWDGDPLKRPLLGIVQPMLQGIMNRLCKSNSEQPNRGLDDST
T7 sequence (Q13188 whole entry): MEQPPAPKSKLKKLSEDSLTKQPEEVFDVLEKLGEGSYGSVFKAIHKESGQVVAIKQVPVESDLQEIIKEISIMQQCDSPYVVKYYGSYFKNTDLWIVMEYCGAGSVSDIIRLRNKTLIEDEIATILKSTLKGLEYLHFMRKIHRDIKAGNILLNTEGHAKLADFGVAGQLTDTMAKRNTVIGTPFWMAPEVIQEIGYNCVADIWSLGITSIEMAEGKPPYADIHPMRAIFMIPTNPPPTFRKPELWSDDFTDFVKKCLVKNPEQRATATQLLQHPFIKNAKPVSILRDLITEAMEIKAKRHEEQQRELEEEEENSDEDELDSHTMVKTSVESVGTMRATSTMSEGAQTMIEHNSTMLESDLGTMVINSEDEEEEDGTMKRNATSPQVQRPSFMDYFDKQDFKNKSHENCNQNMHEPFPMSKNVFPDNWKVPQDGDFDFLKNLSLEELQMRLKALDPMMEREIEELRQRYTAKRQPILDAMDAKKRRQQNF

Regarding `C=C(C)[C@H]1CC=C(C)C(=O)C1` [S-carvone], the remaining binding at 100 µM is 78% in test [1]; 96% in test [2]; 73% on ABL1-phosphorylated; 90% on ACVR2A; 75% at CAMK1; 93% on DYRK2. Moreover, the remaining binding at 100 µM is 91% on ERK8; 83% on FLT3(R834Q); 82% on IGF1R; 78% on KIT(D816V); 78% on LZK; 73% at MLK3. The remaining binding at 100 µM on MST2 is 65%; at NDR2, 83%; at PIP5K2B, 100%; at PKAC-alpha it was 85%; at PRKCD, 90%; on RIPK5, 61%. Further, the remaining binding at 100 µM on SYK was found to be 75%; at TRKA, 82%; on ULK2, 75%.
